{"source": "paper PMC10033419", "about": "“Blocking NS3–NS4B interaction inhibits dengue virus in non-human primates” (Nature, 2023)", "key": {"DENV-2 RL strain": {"system": "DENV-2 RL strain", "test": "Survival study, lethal DENV challenge with 4G2 antibody", "type": "in vivo, AG129 mice"}, "DENV-2/16681 [1]": {"system": "DENV-2/16681", "test": "NHP DENV-2 study, NS1 ELISA in serum", "parameters": "species or system rhesus macaques (M. mulatta)", "conditions": "rhesus monkey, in vivo"}, "DENV-2/16681 [2]": {"system": "DENV-2/16681", "test": "NHP DENV-2 study, anti-DENV IgM ELISA", "parameters": "species or system rhesus macaques (M. mulatta)", "conditions": "rhesus monkey, in vivo"}, "[3]": {"test": "Pharmacokinetics in mice, i.v. and oral", "type": "in vivo, CD-1 mice", "conditions": "for bioavailability: po", "description": "The housing conditions and experimental procedures were approved by the ethics committee on animal experiments of Janssen Pharmaceutica NV (license number LA1100119). Janssen Pharmaceutica NV has full AAALAC accreditation. […] The blood samples were immediately centrifuged at 4 °C and the plasma was stored at −20 °C. Compound concentrations in the plasma samples were determined using the API 5500 LC–MS/MS system mass spectrometer (Applied Biosystems). […] (Certara)."}, "in vivo": {"test": "in vivo", "parameters": "species or system rhesus macaques", "conditions": "both sexes, Indian-strain, rhesus monkey, po, 6 mg/kg", "source_text": "WRAIR is fully accredited by AAALAC International."}, "Plasma protein binding": {"test": "Plasma protein binding", "type": "in vitro ADME", "conditions": "mouse, mice"}, "[4]": {"conditions": "rhesus monkey, in vivo"}, "[5]": {"conditions": "male, CD-1, plasma, mouse oral 1 mg/kg"}, "[6]": {"conditions": "male, CD-1, plasma, mouse oral 10 mg/kg"}, "[7]": {"conditions": "male, CD-1, plasma, mouse oral 30 mg/kg"}, "[8]": {"conditions": "mouse i.v. 2.5 mg/kg, 2.5 mg/kg"}}, "note": "“And” between values parts separate entries of the source, which are not always exact repeats. Identical values can stand only once. Like-named read-outs stand apart in the source and are kept apart here."}
{"smiles": "COc1cc(N[C@H](C(=O)c2c[nH]c3ccc(OC(F)(F)F)cc23)c2ccc(Cl)cc2OC)cc(S(C)(=O)=O)c1", "note": "[JNJ-1802]", "values": [{"measurement": "% Survival", "setting": "DENV-2 RL strain; 802R_3, BID, d p.i. 11", "value": 100, "unit": "%"}, {"measurement": "% Survival", "setting": "DENV-2 RL strain; 802R_3, BID, d p.i. 12", "value": 100, "unit": "%"}, {"measurement": "% Survival", "setting": "DENV-2 RL strain; 802R_3, BID, d p.i. 13", "value": 100, "unit": "%"}, {"measurement": "% Survival", "setting": "DENV-2 RL strain; 802R_3, BID, d p.i. 14", "value": 100, "unit": "%"}, {"measurement": "% Survival", "setting": "DENV-2 RL strain; 802R_3, BID, d p.i. 15", "value": 100, "unit": "%"}, {"measurement": "% Survival", "setting": "DENV-2 RL strain; 802R_3, BID, d p.i. 16", "value": 100, "unit": "%"}, {"measurement": "% Survival", "setting": "DENV-2 RL strain; 802R_3, BID, d p.i. 17", "value": 100, "unit": "%"}, {"measurement": "% Survival", "setting": "DENV-2 RL strain; 802R_3, BID, d p.i. 18", "value": 100, "unit": "%"}, {"measurement": "% Survival", "setting": "DENV-2 RL strain; 802R_3, BID, d p.i. 19", "value": 100, "unit": "%"}, {"measurement": "% Survival", "setting": "DENV-2 RL strain; 802R_3, BID, d p.i. 20", "value": 100, "unit": "%"}, {"measurement": "% Survival", "setting": "DENV-2 RL strain; 802R_3, BID, d p.i. 21", "value": 100, "unit": "%"}, {"measurement": "% Survival", "setting": "DENV-2 RL strain; 802R_3, BID, d p.i. 22", "value": 90, "unit": "%"}, {"measurement": "% Survival", "setting": "DENV-2 RL strain; 802R_3, BID, d p.i. 23", "value": 90, "unit": "%"}, {"measurement": "% Survival", "setting": "DENV-2 RL strain; 802R_3, BID, d p.i. 24", "value": 80, "unit": "%"}, {"measurement": "% Survival", "setting": "DENV-2 RL strain; 802R_3, BID, d p.i. 25 = end of study", "value": 80, "unit": "%"}, {"measurement": "% Survival", "setting": "DENV-2 RL strain; 802R_10, BID, d p.i. 0", "value": 100, "unit": "%"}, {"measurement": "% Survival", "setting": "DENV-2 RL strain; 802R_10, BID, d p.i. 1", "value": 100, "unit": "%"}, {"measurement": "% Survival", "setting": "DENV-2 RL strain; 802R_10, BID, d p.i. 2", "value": 100, "unit": "%"}, {"measurement": "% Survival", "setting": "DENV-2 RL strain; 802R_10, BID, d p.i. 4", "value": 100, "unit": "%"}, {"measurement": "% Survival", "setting": "DENV-2 RL strain; 802R_10, BID, d p.i. 5", "value": 100, "unit": "%"}, {"measurement": "% Survival", "setting": "DENV-2 RL strain; 802R_10, BID, d p.i. 6", "value": 100, "unit": "%"}, {"measurement": "% Survival", "setting": "DENV-2 RL strain; 802R_10, BID, d p.i. 7", "value": 100, "unit": "%"}, {"measurement": "% Survival", "setting": "DENV-2 RL strain; 802R_10, BID, d p.i. 8", "value": 100, "unit": "%"}, {"measurement": "% Survival", "setting": "DENV-2 RL strain; 802R_10, BID, d p.i. 9", "value": 100, "unit": "%"}, {"measurement": "% Survival", "setting": "DENV-2 RL strain; 802R_10, BID, d p.i. 10", "value": 100, "unit": "%"}, {"measurement": "% Survival", "setting": "DENV-2 RL strain; 802R_10, BID, d p.i. 11", "value": 100, "unit": "%"}, {"measurement": "% Survival", "setting": "DENV-2 RL strain; 802R_10, BID, d p.i. 12", "value": 100, "unit": "%"}, {"measurement": "% Survival", "setting": "DENV-2 RL strain; 802R_10, BID, d p.i. 13", "value": 100, "unit": "%"}, {"measurement": "% Survival", "setting": "DENV-2 RL strain; 802R_10, BID, d p.i. 14", "value": 100, "unit": "%"}, {"measurement": "% Survival", "setting": "DENV-2 RL strain; 802R_10, BID, d p.i. 15", "value": 80, "unit": "%"}, {"measurement": "% Survival", "setting": "DENV-2 RL strain; 802R_10, BID, d p.i. 16", "value": 80, "unit": "%"}, {"measurement": "% Survival", "setting": "DENV-2 RL strain; 802R_10, BID, d p.i. 17", "value": 80, "unit": "%"}, {"measurement": "% Survival", "setting": "DENV-2 RL strain; 802R_10, BID, d p.i. 18", "value": 80, "unit": "%"}, {"measurement": "% Survival", "setting": "DENV-2 RL strain; 802R_10, BID, d p.i. 19", "value": 80, "unit": "%"}, {"measurement": "% Survival", "setting": "DENV-2 RL strain; 802R_10, BID, d p.i. 20", "value": 80, "unit": "%"}, {"measurement": "% Survival", "setting": "DENV-2 RL strain; 802R_10, BID, d p.i. 21", "value": 80, "unit": "%"}, {"measurement": "% Survival", "setting": "DENV-2 RL strain; 802R_10, BID, d p.i. 22", "value": 80, "unit": "%"}, {"measurement": "% Survival", "setting": "DENV-2 RL strain; 802R_10, BID, d p.i. 23", "value": 80, "unit": "%"}, {"measurement": "% Survival", "setting": "DENV-2 RL strain; 802R_10, BID, d p.i. 24", "value": 80, "unit": "%"}, {"measurement": "% Survival", "setting": "DENV-2 RL strain; 802R_10, BID, d p.i. 25 = end of study", "value": 80, "unit": "%"}, {"measurement": "NS1 protein in serum", "setting": "DENV-2/16681 [1]", "value": "positive NS1 signal"}, {"measurement": "IgG and IgM seroconversion", "setting": "DENV-2/16681 [2]", "value": "occurred in all of the animals"}, {"measurement": "IgM seroconversion", "setting": "DENV-2/16681 [2]", "value": "occurred at later timepoints"}, {"measurement": "animals with detectable anti-DENV IgM", "setting": "DENV-2/16681 [2]", "value": "one out of three"}, {"measurement": "clearance", "setting": "[3]; male, CD-1, in vivo, iv, mouse i.v. 2.5 mg/kg, read-out: CLp", "value": "4.97 ± 1.26", "unit": "mL/min/kg"}, {"measurement": "Cmax", "setting": "[3]; male, CD-1, in vivo, mouse oral 3 mg/kg", "value": "501 ± 149", "unit": "ng/mL"}, {"measurement": "half-life", "setting": "[3]; male, CD-1, mouse, plasma, iv, 2.5 mg/kg, mouse i.v. 2.5 mg/kg", "value": 6.2, "unit": "h"}, {"measurement": "bioavailability", "setting": "[3]; male, CD-1, mouse, plasma, 1 mg/kg, mouse oral 1 mg/kg", "value": "46 ± 6", "unit": "%"}, {"measurement": "bioavailability", "setting": "[3]; male, CD-1, mouse, plasma, 3 mg/kg, mouse oral 3 mg/kg", "value": "59 ± 28", "unit": "%"}, {"measurement": "bioavailability", "setting": "[3]; male, CD-1, mouse, plasma, 10 mg/kg, mouse oral 10 mg/kg", "value": "> 100", "unit": "%"}, {"measurement": "bioavailability", "setting": "[3]; male, CD-1, mouse, plasma, 30 mg/kg, mouse oral 30 mg/kg", "value": "121 ± 21", "unit": "%"}, {"measurement": "AUC(0-t)", "setting": "[3]; male, CD-1, mouse, plasma, mice, single oral dose 1 to 30 mg per kg, read-out: AUC0–24h, range", "value": "1520 to 120000", "unit": "ng·h/mL"}, {"measurement": "AUC(0-inf)", "setting": "[3]; male, CD-1, plasma, iv, mouse i.v. 2.5 mg/kg", "value": 8820, "unit": "ng·h/mL"}, {"measurement": "AUC(0-t)", "setting": "[3]; male, CD-1, plasma, iv, mouse i.v. 2.5 mg/kg, read-out: AUC(0-24h)", "value": 8240, "unit": "ng·h/mL"}, {"measurement": "Cmax", "setting": "[3]; [5]", "value": "119 ± 26", "unit": "ng/mL"}, {"measurement": "Tmax", "setting": "[3]; [5]", "value": "5 ± 1.7", "unit": "h"}, {"measurement": "AUC(0-t)", "setting": "[3]; male, CD-1, plasma, mouse oral 1 mg/kg, read-out: AUC(0-24h)", "value": 1520, "unit": "ng·h/mL"}, {"measurement": "Tmax", "setting": "[3]; male, CD-1, plasma, mouse oral 3 mg/kg", "value": "5 ± 1.7", "unit": "h"}, {"measurement": "AUC(0-t)", "setting": "[3]; male, CD-1, plasma, mouse oral 3 mg/kg, read-out: AUC(0-24h)", "value": 5780, "unit": "ng·h/mL"}, {"measurement": "Cmax", "setting": "[3]; [6]", "value": 2730, "unit": "ng/mL"}, {"measurement": "Tmax", "setting": "[3]; [6]", "value": 7, "unit": "h"}, {"measurement": "AUC(0-t)", "setting": "[3]; male, CD-1, plasma, mouse oral 10 mg/kg, read-out: AUC(0-24h)", "value": 35600, "unit": "ng·h/mL"}, {"measurement": "Cmax", "setting": "[3]; [7]", "value": 7760, "unit": "ng/mL"}, {"measurement": "Tmax", "setting": "[3]; [7]", "value": "6 ± 1.7", "unit": "h"}, {"measurement": "AUC(0-t)", "setting": "[3]; male, CD-1, plasma, mouse oral 30 mg/kg, read-out: AUC(0-24h)", "value": 120000, "unit": "ng·h/mL"}, {"measurement": "Vdssp", "setting": "[3]; [8]", "value": "2.51 ± 0.55 L/kg and 2.51 ± 0.553 L/kg"}, {"measurement": "t1/2", "setting": "[3]; [8]", "value": "6.17 ± 0.23", "unit": "h"}, {"measurement": "F", "setting": "[3]; mouse oral 1 mg/kg, 1 mg/kg", "value": "46.1+/-6.47%"}, {"measurement": "F", "setting": "[3]; mouse oral 3 mg/kg, 3 mg/kg", "value": "58.5+/-27.9%"}, {"measurement": "Tmax", "setting": "in vivo", "value": 8, "unit": "h"}, {"measurement": "fraction unbound", "setting": "Plasma protein binding", "value": "< 0.001"}, {"measurement": "haematological analysis", "setting": "[4]", "value": "did not show any indication for a treatment-related effect"}]}
